Experimental findings from PMC13534789, “Molecular Glue Degraders Enhance CAPRIN1‐Dependent Lysosomal Degradation of APP and Reduce Amyloid β in Alzheimer's Disease” (Advanced Science, 2026) are described below.

Each structure is given as a SMILES string.

One experiment deals with T1, 3R‐APP695‐HiBiT (Homo sapiens, UniProt P05067, K724R/K725R/K726R).
T1 construct: expressed in transfected cells
As to the kind of experiment: HiBiT luminescence and Aβ42 ELISA in 3R-APP695-HiBiT HEK cells. Type of experiment: cell-based. Conditions: KKK motif K649–K651 replaced by arginines, 72 h. The source says:
To validate this interaction, we co‐expressed the C‐terminal domain of APP (HiBiT‐tagged C99) and the N‐terminus of FLAG‐tagged CAPRIN1 (residues 1–250) in HEK cells. Flag IP followed by western blotting confirmed the interaction between CAPRIN1 and APP (Figure 4H). To further delineate the interaction interface, we focused on a lysine‐rich (KKK) motif (K649–K651) within APP as a potential CAPRIN1‐interacting region, given its location within the cytosolic domain of C99 and its enrichment in basic residues that may mediate protein–protein interactions. To assess the functional relevance of this interaction in compound activity, we generated an APP695‐3R mutant, replacing the KKK motif (K649‐K651) with arginines by site‐directed mutagenesis. […] To further assess the role of this motif in APP‐CAPRIN1 interaction, we performed co‐immunoprecipitation experiments comparing WT‐ and 3R‐APP695‐HiBiT.
HEK293 cells were purchased from the American Type Culture Collection (ATCC). Lentiviral plasmids (pLV‐Hygro‐CMV‐hAPP, pLV‐Hygro‐CMV‐hAPP‐Hibit, and pLV‐Hygro‐CMV‐hAPP ‐3K to 3R‐Hibit) for APP695WT HEK293 and APP695‐Hibit HEK293 were generated in the third‐generation plasmid. […] Once expanded, clones were analyzed by ELISA for amyloid beta 42 (Aβ42), western blot for APP expression, and Hibit‐lytic assay (Promega). […]

Experiment [1] deals with AD iPSC‐derived organoids. As to the kind of experiment: AD iPSC-derived 3D brain organoids. Type of experiment: cell-based, human. The procedure:
For generating brain 3D organoids, Lancaster's protocol and Paşca's protocol were used with minor modifications. In brief, 9000 cells/ 100 µL of each well were seeded in Ultra‐low attachment 96 well U‐bottom plates (Sbio) supplemented with 10 µM of ROCK inhibitor. The next day, 100 µL of mTeSR1 was added, and the cells were cultured as embryonic bodies (EB) for 5 days at 37°C in 5% CO2 incubator. When the size of EB reached 400–600 µm, EBs were transferred into ultra‐low binding 24 well (Corning) with 200 µL of neural differentiation medium (Neurobasal medium (Gibco), 2% B27, 1X Glutamax) with 2 µg/mL of Doxycycline and incubated for 5 days at 37°C in 5% CO2 incubator until the size of EB was 700–800 µm. During this step, one EB was in one well, and the culture medium was changed every day with fresh neural differentiation medium with Doxycycline. At day 10, the EB was embedded into 15 µL of 100% Matrigel (Corning), and the embedded EBs were cultured in neural differentiation medium without Doxycycline in 6 well ultra‐low binding plates (Corning). […]
iPSC‐Ns or HEK‐APP695WT were treated with drugs, and secreted Aβ42 peptides inculture soup were quantified using the Human Amyloid β1‐42 human ELISA kit (Thermo Fisher) according to the manufacturer's protocol. […] Prior to quantification, formic acid‐containing samples were neutralized with 1 M Tris base (pH 11). Aβ40 and Aβ42 levels were measured using human‐specific ELISA kits (Invitrogen) and normalized to total protein concentrations determined by the BCA assay (Thermo Scientific). For Aβ quantification in 3D organoids, 3D organoids’ processing and ELISA analysis were performed with minor modifications from previously described protocols. […] Aβ42 levels in both fractions were measured using human‐specific ELISA kits (Thermo Fisher) according to the manufacturer's instructions. […] Aβ levels were normalized to total protein concentration determined by BCA assay. […]

For `COc1cccc(NC(=O)Nc2nc3ccc(C(=O)N4CCOCC4)cc3s2)c1` [compound 0152], the “Response of 3R-APP695-HiBiT cells (HiBiT luminescence, Aβ42 ELISA)” value on 3R‐APP695‐HiBiT is “no response”. In addition, the “APP/Aβ42 immunoreactivity in organoids” value in experiment [1] (AG27606 and UKBi011A organoids, 10 µM) was “reduced APP/Aβ42 levels”. Further, the “Aβ42 in organoids by ELISA” value in experiment [1] (AG27606 organoids, RIPA-soluble and formic acid-solubilized fractions) was “significantly reduced Aβ42 levels”. In addition, the “CAPRIN1–APP colocalization in organoids” value in experiment [1] (AG27606 organoids, treated for three months) was “increased CAPRIN1–APP colocalization”.
